The text below walks through data of patent publication US11780830B2, “Triazolone derivatives or salts thereof and pharmaceutical compositions comprising the same” (YUHAN CORPORATION, priority 2018, dated 2023).

Broadly, the IC50 is the midpoint of a concentration-inhibition curve.

Common to all, as to type: biochemical
For assay [1], the target named is T1, recombinant human MAO-A (monoamine oxidase-A) (Homo sapiens, UniProt P21397).
T1 construct: purchased Sigma-Aldrich
T1 sequence (P21397 1-527): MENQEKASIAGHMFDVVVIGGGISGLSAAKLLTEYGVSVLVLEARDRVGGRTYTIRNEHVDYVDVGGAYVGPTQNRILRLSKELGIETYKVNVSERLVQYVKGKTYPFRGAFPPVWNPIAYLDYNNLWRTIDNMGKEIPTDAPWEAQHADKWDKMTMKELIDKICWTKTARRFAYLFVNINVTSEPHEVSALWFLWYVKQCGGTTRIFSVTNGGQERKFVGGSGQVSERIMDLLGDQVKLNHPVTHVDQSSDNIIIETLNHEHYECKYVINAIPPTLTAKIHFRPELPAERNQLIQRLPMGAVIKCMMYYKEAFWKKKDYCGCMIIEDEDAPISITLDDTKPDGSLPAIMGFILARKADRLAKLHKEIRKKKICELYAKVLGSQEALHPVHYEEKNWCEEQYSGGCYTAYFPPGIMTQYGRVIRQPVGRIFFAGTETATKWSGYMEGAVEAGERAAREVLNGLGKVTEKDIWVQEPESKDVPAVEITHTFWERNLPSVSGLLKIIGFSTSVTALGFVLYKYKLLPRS
The assay is described as follows: Activity on recombinant human MAO-A, method similar to the VAP-1 assay. To be noted: substrate 0.5 mM tyramine; read-out: Inhibitory Activity (IC50, nM) MAO-A. In a few lines: (§1)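 Enzyme preincubated with compound 30 min at 37 °C in 50 mM sodium phosphate pH 7.4, final DMSO below 1%. Substrate was 0.5 mM tyramine for MAO-A and 1 mM benzylamine for MAO-B, with 200 uM Amplex Red and 1 U/mL HRP. H2O2-coupled resorufin fluorescence (ex 544/em 590) followed over 1–2 h; 8-point 4-parameter IC50.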

In assay [2] the target is T2, recombinant human DAO (diamine oxidase) (Homo sapiens, UniProt P19801).
T2 construct: purchased R&D systems
T2 sequence (P19801 20-751): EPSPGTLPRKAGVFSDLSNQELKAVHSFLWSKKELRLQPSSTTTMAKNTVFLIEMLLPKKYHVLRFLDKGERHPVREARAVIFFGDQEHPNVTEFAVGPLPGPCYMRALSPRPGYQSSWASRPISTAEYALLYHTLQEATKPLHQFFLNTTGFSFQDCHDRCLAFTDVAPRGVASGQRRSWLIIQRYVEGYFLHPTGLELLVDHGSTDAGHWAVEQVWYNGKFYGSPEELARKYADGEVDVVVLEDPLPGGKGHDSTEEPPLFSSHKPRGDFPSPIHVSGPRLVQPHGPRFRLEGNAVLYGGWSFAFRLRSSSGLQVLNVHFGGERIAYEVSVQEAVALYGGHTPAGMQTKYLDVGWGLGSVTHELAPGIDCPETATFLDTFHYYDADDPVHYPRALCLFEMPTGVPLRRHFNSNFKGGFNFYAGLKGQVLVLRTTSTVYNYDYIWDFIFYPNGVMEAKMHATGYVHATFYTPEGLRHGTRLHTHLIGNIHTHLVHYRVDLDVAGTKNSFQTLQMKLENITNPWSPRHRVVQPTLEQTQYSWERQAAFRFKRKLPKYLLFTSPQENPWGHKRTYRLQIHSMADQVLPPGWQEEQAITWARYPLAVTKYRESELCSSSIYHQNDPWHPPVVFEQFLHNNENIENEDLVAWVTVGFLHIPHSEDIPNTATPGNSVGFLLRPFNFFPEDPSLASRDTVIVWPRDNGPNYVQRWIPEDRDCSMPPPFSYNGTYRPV
Kind of assay: Activity on recombinant human DAO, method similar to the VAP-1 assay. To be noted: substrate 1 mM putrescine; read-out: Inhibitory Activity (IC50, nM) DAO. In a few lines:
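Inhibition of recombinant human diamine oxidase (DAO, R&D systems) was assessed by the same approach as the VAP-1 assay, using 1 mM putrescine as substrate. Hydrogen peroxide formed was detected through an HRP-coupled Amplex Red reaction yielding fluorescent resorufin, read at 544 nm excitation and 590 nm emission. IC50 values came from four-parameter logistic fitting in GraphPad Prism.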

Assay [3] concerns the target T3, recombinant human MAO-B (monoamine oxidase-B) (Homo sapiens, UniProt P27338).
T3 construct: purchased Sigma-Aldrich
T3 sequence (P27338 1-520): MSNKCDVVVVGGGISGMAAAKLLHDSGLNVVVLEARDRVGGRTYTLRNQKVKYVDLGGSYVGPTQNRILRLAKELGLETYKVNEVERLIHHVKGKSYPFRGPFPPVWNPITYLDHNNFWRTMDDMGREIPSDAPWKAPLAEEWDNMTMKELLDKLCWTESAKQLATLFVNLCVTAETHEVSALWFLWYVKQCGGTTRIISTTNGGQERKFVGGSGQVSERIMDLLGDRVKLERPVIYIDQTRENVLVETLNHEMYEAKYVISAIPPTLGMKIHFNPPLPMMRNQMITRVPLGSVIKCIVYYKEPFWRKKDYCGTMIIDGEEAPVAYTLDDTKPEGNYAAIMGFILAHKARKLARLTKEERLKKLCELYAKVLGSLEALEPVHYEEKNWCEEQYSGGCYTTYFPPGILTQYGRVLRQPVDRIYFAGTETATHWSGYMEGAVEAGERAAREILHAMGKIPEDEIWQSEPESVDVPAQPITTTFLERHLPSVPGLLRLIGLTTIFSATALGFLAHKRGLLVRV
The assay is described as follows: Activity on recombinant human MAO-B, method similar to the VAP-1 assay. The settings on record: substrate 1 mM benzylamine; read-out: Inhibitory Activity (IC50, nM) MAO-B. A digest of the protocol:
as §1

The next assay addresses T4, recombinant human VAP-1 (Homo sapiens, UniProt Q16853).
T4 construct: purchased R&D systems
T4 sequence (Q16853 1-763): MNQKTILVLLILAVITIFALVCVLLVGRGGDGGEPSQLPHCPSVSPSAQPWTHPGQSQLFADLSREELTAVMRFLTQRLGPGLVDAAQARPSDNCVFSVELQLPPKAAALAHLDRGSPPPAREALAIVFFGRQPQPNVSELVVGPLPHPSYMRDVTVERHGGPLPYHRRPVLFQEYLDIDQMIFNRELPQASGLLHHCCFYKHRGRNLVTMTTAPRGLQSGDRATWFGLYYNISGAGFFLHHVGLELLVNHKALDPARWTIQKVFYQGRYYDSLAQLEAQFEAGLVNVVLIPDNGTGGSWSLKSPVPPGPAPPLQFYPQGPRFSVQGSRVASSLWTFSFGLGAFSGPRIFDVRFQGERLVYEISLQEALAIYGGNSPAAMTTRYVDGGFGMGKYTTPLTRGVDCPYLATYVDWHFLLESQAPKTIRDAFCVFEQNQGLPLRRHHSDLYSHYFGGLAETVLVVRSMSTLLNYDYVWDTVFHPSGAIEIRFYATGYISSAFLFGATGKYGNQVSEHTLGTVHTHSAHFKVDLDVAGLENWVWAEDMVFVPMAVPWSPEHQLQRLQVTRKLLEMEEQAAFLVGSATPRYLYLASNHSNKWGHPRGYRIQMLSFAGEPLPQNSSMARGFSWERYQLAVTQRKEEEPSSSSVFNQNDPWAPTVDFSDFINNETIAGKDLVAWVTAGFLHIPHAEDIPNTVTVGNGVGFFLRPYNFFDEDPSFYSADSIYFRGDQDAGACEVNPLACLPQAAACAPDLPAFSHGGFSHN
The assay is described as follows: Activity on recombinant human VAP-1, HRP-coupled Amplex Red hydrogen peroxide assay. To be noted: substrate 1 mM benzylamine; compound incubated with enzyme at 37° C. for 30 minutes; pH 7.4; read-out: Inhibitory Activity (IC50, nM) human VAP-1. A digest of the protocol:
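Enzyme in 50 mM sodium phosphate pH 7.4 preincubated with compound 30 min at 37 °C, then 1 mM benzylamine, 200 µM Amplex Red and 1 U/mL HRP added. H2O2-derived resorufin fluorescence (ex 544/em 590 nm) followed over 1–2 h; signal-rate decrease versus DMSO control, 8-point curve, four-parameter logistic IC50.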

Structures are written as SMILES. Counter-ions that a name gives are not always drawn.

For the compound `NC/C(=C\F)Cn1ncn(Cc2ccc(-c3cccc(N4CCNCC4)c3)s2)c1=O` [Example 23, 2-[(2E)-2-(aminomethyl)-3-fluoroprop-2-en-1-yl]-4-(5-[3-(piperazin-1-yl)phenyl]thiophen-2-ylmethyl)-2,4-dihydro-3H-1,2,4-triazol-3-one hydrochloride], the IC50 in assay [1] was > 100000 nM; in assay [2], 3200 nM; in assay [3], 300 nM; at recombinant human VAP-1, 2.5 nM.

For the compound `NC/C(=C\F)Cn1ncn(Cc2ccc(-c3ccc(C4CCOCC4)cc3)s2)c1=O` [Example 25, 2-[(2E)-2-(aminomethyl)-3-fluoroprop-2-en-1-yl]-4-(5-[4-(tetrahydro-2H-pyran-4-yl)phenyl]thiophen-2-ylmethyl)-2,4-dihydro-3H-1,2,4-triazol-3-one hydrochloride], the IC50 in assay [1] is > 100000 nM; in assay [2] it was 690 nM; in assay [3], 1300 nM; at recombinant human VAP-1, 3.1 nM.

For `Cc1cc(-c2ccc(Cn3cnn(C/C(=C/F)CN)c3=O)s2)cnc1N1CCOCC1` [Example 172, 2-[(2E)-2-(aminomethyl)-3-fluoroprop-2-en-1-yl]-4-({5-[5-methyl-6-(morpholin-4-yl)pyridin-3-yl]thiophen-2-yl}methyl)-2,4-dihydro-3H-1,2,4-triazol-3-one], the IC50 was > 100000 nM in assay [1], 490 nM in assay [2], 3900 nM in assay [3] and 2.8 nM on recombinant human VAP-1.

As for `CC(C)c1nc(-c2ccc(-c3ccc(Cn4cnn(C/C(=C/F)CN)c4=O)s3)cc2)no1` [Example 37, 2-[(2E)-2-(aminomethyl)-3-fluoroprop-2-en-1-yl]-4-[(5-4-[5-(propan-2-yl)-1,2,4-oxadiazol-3-yl]phenylthiophen-2-yl)methyl]-2,4-dihydro-3H-1,2,4-triazol-3-one hydrochloride], the IC50 turned out to be 5590 nM in assay [1], 120 nM in assay [2], 590 nM in assay [3] and 0.76 nM on recombinant human VAP-1.

As to `CS(=O)(=O)Nc1cccc(-c2ccc(Cn3cnn(C/C(=C/F)CN)c3=O)s2)c1` [Example 177, N-{3-[5-({1-[(2E)-2-(aminomethyl)-3-fluoroprop-2-en-1-yl]-5-oxo-1,5-dihydro-4H-1,2,4-triazol-4-yl}methyl)thiophen-2-yl]phenyl}methansulfonamide], the IC50 was > 100000 nM in assay [1], 570 nM in assay [2], 300 nM in assay [3] and 1.5 nM on recombinant human VAP-1.

Consider `NC/C(=C\F)Cn1ncn(Cc2ccc(/C=C/c3ccsc3)s2)c1=O` [Example 121, 2-[(E)-2-(aminomethyl)-3-fluoro-allyl]-4-[[5-[(E)-2-(3-thienyl)vinyl]-2-thienyl]methyl]-1,2,4-triazol-3-one hydrochloride], for which the IC50 was > 100000 nM in assay [1], 1800 nM in assay [2], 290 nM in assay [3] and 1.2 nM at recombinant human VAP-1.

As to `NC/C(=C\F)Cn1ncn(Cc2ccc(-c3ccc(N)cc3)s2)c1=O` [Example 166, 2-[(2E)-2-(aminomethyl)-3-fluoroprop-2-en-1-yl]-4-{[5-(4-aminophenyl)thiophen-2-yl]methyl}-2,4-dihydro-3H-1,2,4-triazol-3-one], the IC50 in assay [1] was > 100000 nM; in assay [2] it was 14000 nM; in assay [3] it was 1300 nM; at recombinant human VAP-1, 7.7 nM.

On to `Cc1cc(-c2ccc(Cn3cnn(C/C(=C/F)CN)c3=O)s2)cc2ccc(=O)[nH]c12` [Example 78, 6-[5-[[1-[(E)-2-(aminomethyl)-3-fluoro-allyl]-5-oxo-1,2,4-triazol-4-yl]methyl]-2-thienyl]-8-methyl-1H-quinolin-2-one], for which the IC50 was > 100000 nM in assay [1], 630 nM in assay [2], 4800 nM in assay [3] and 0.2 nM on recombinant human VAP-1.

Take `CN(C)c1ccc(-c2ccc3sc(Cn4cnn(C/C(=C/F)CN)c4=O)cc3c2)cn1` [Example 212, 2-[(2E)-2-(aminomethyl)-3-fluoroprop-2-en-1-yl]-4-({5-[6-(dimethylamino)pyridin-3-yl]-1-benzothiophen-2-yl}methyl)-2,4-dihydro-3H-1,2,4-triazol-3-one]: the IC50 in assay [1] stood at 37000 nM; in assay [2] it was 77000 nM; in assay [3] it was 4900 nM; on recombinant human VAP-1, 2.3 nM.

In the case of `Cc1cc(-c2ccc(Cn3cnn(C/C(=C/F)CN)c3=O)s2)cc2c(C(F)(F)F)cc(=O)[nH]c12` [Example 83, 6-[5-[[1-[(E)-2-(aminomethyl)-3-fluoro-allyl]-5-oxo-1,2,4-triazol-4-yl]methyl]-2-thienyl]-8-methyl-4-(trifluoromethyl)-1H-quinolin-2-one], the IC50 in assay [1] turned out to be 36000 nM; in assay [2], 280 nM; in assay [3], 650 nM; on recombinant human VAP-1, 0.5 nM.

Take `CN(C)c1ccc(C#Cc2ccc(Cn3cnn(C/C(=C/F)CN)c3=O)s2)cn1` [Example 128, 2-[(E)-2-(aminomethyl)-3-fluoro-allyl]-4-[[5-[2-[6-(dimethylamino)-3-pyridyl]ethynyl]-2-thienyl]methyl]-1,2,4-triazol-3-one]: the IC50 in assay [1] stood at 30000 nM; in assay [2], 9800 nM; in assay [3], 490 nM; on recombinant human VAP-1, 0.7 nM.
